# How the values were obtained:
# [1] = biological target: T1, hBUB1 (Homo sapiens, UniProt O43683); assay: hBUB1 kinase activity assay (biochemical fluorescence polarization assay, IMAP); conditions: BUB1/BUB3 3.26 nM, ATP 15 µM, BUB1/BUB3 substrate 75 nM; N=2, n=2; read-out: hBUB1 pIC50 (converted)
# T1 construct: purchased Carna Biosciences 05-187
# Experimental: This protocol describes how the Kinase Activity Assay was performed to determine pIC50 values of compounds of general formula (I) against hBUB1.
# Assays were performed in 384-well plates (Greiner, black, flat bottom, 781076) by sequential addition (final concentrations are indicated) of inhibitor (5 µL, 0.3 nM - 1 µM or 3 nM - 10 µM), BUB1/BUB3 (5 µL, 3.26 nM, Carna Biosciences (05-187), lot: 15CBS-0644 D), ATP (5 µL, 15 µM) and BUB1/BUB3 substrate (5 µL, 75 nM, Carna Biosciences (05-187MSSU)), all as 4x working solutions. The final concentration of DMSO was 1%. Assay reactions were stopped by addition of IMAP progressive binding reagent (20 µL, 1200x diluted, Molecular Devices (R8155), lot: 3117896). Each assay included the following controls: (i) a background control (treated with vehicle instead of inhibitor and BUB1/BUB3 substrate), (ii) MIN controls (treated with 5 µM BAY1816032 (MedChem Express) as inhibitor, used as 0% BUB1 activity) and (iii) MAX controls (treated with vehicle instead of inhibitor, used as 100% BUB1 activity). All inhibitors were tested in two separate assays and all inhibitor concentrations were tested in duplicate per assay (N=2, n=2).
# For each assay, assay buffer (AB) was freshly prepared and consisted of 20 mM HEPES (prepared by diluting 1 M HEPES, pH 7.2), 5 mM MgCl2, 0.01% Tween-20 and 1 mM DTT. Stocks of inhibitors (in DMSO) were diluted in AB to obtain 4x working solutions (4% DMSO) and 5 µL was added to the assay plate. BUB1/BUB3 (3.26 µM (486 µg/mL) in storage buffer) was diluted in AB to obtain 13.0 nM of which 5 µL was added to all wells of the assay plate. The assay plate was centrifuged (1 min, 200 g) and incubated at RT for 30 min. ATP (4 mM in MilliQ) was diluted in AB to obtain 60 µM of which 5 µL was added to each well. BUB1/BUB3 substrate (1 mM) was diluted in 20 mM HEPES (prepared by diluting 1 M HEPES (pH 7.2) in MilliQ) to obtain 80 µM (this solution was freshly prepared every assay) and further diluted in AB to obtain 300 nM after which 5 µL was added to each well of the assay plate except for background control wells. The assay plate was centrifuged (1 min, 200 g) and incubated at RT in the dark for 180 min. IMAP progressive binding buffer A (5x) and IMAP progressive binding buffer B (5x) were mixed in a ratio to obtain 30% buffer A and 70% buffer B, which was subsequently diluted 5x in MilliQ. IMAP progressive binding reagent was diluted 600x in aforementioned mixture of buffer A and B (to obtain a 2x working solution) of which 20 µL was added to each well of the assay plate. The assay plate was centrifuged (1 min, 200 g) and incubated at RT in the dark for 90 min. Fluorescence polarization was measured on a CLARIOstar plate reader using the following settings: (i) optic settings → excitation = F: 482-16, dichroic = F: LP 504, emission = F: 530-40, (ii) optic = top optic, (iii) speed/precision = maximum precision, (iv) focus adjustment was performed for every assay and (v) gain adjustment was done by setting the target mP value to 35 mP for one of the MIN control wells. Data was normalized between MIN and MAX controls and data was plotted using GraphPad Prism 8.0 using "Nonlinear regression (curve fit)" and "log(inhibitor) vs. normalized response - Variable slope" to determine pIC50 values.
# Inhibition is indicated as pIC50 ("-" = not measured). Compounds having an activity designated as "A" provided an pIC50 ≥ 7.0 (IC50 ≤100 nM); compounds having an activity designated as "B" provided an 6.3 ≤ pIC50 < 7.0 (100 nM<IC50 ≤ 500 nM); compounds having an activity designated as "C" provided an 6.0 ≤ pIC50 < 6.3 (500 nM < IC50 ≤ 1 µM); compounds having an activity designated as "D" provided an 6.0 < pIC50 ≤ 5.0 (1 µM < IC50 ≤ 10 µM); and compounds having an activity designated as "E" provided an pIC50 < 5.0 (IC50 >10 µM).
# [2] = test system: U2OS cells; assay: Cellular proliferation assay (SRB proliferation assay); type: cell-based; conditions: Homo sapiens, 72 h treatment, SRB staining, N=2, n=3
# Experimental: This protocol describes how the Cellular Proliferation Assay was performed to determine pIC50 values of compounds of general formula (I) against U2OS cells.
# U2OS (human osteosarcoma) cells were purchased at ATCC and were tested on regular basis for mycoplasma contamination. Cultures were discarded after 2-3 months of use. Cells were cultured at 37°C under 7% CO2 in DMEM (Sigma Aldrich, D6546) supplemented with GlutaMAX (2 mM, ThermoFisher), 10% (v/v) heat-inactivated newborn calf serum (Seradigm), penicillin and streptomycin (200 µg/mL each, Duchefa) (complete medium). Medium was refreshed every 2-3 days and cells were passaged by trypsinization twice a week at 80-90% confluence. Cell viability was assessed by Trypan Blue exclusion and cell quantification using a TC20™ Automated Cell Counter (Bio-Rad).
# Assays were performed in 96-well plates (Greiner, Cellstar, 655180) by seeding (day 0), treatment (day 1) and subsequent incubation for 72 h. Cells were fixed, stained and staining was subsequently dissolved after which absorbance was measured. Each assay included the following controls: (i) a background control (to which no cells were added), (ii) t0 controls (separate assay plate in which cells were fixed on day 1, used as 0% proliferation), (iii) nontreated controls (present in each assay plate, treated with vehicle and used as 100% proliferation). Cells were treated with different concentrations of indicated inhibitor. All inhibitors were tested in two separate assays and all inhibitor concentrations were tested in triplicate per assay (N=2, n=3).
# For each assay, U2OS cells from 10 cm dishes were seeded into 96-well plates (3,000 cells/well) and subsequently incubated overnight to allow for cell adherence. Stocks of inhibitor and vehicle (all in DMSO) were diluted in complete medium to obtain 2x working solutions (1% DMSO). Cell medium was replaced by fresh complete medium (50 µL), treatment was started by addition of the 2x working solutions (50 µL) and plates were incubated at 37°C for 72 h. Cell medium was replaced by fresh serum free medium (100 µL) and cells were fixed by addition of 30 µL 50% (w/v) aq. trichloroacetic acid after which the plates were incubated at 4°C for 60 min. Wells were emptied by shaking the plates upside down after which wells were washed three times with demineralized water and air-dried overnight. To each well, 60 µL of SRB solution (0.4% (w/v) in 1% aq. acetic acid) was added and plates were incubated for 30 min. The excess SRB was removed and the wells were washed three times with 1% aq. acetic acid and air-dried overnight. Bound SRB was redissolved by addition of 150 µL 10 mM TRIS (free-base) and absorbance was measured at 540 nm on a CLARIOstar plate reader. Data was normalized between t0 and nontreated controls and plotted using GraphPad Prism 8.0 using "Nonlinear regression (curve fit)" and "log(inhibitor) vs. normalized response - Variable slope" to determine pIC50 values.
# Inhibition is indicated as pIC50 ("-" = not measured). Compounds having an activity designated as "A" provided an pIC50 ≥ 6.0 (IC50 ≤1 µM); compounds having an activity designated as "B" provided an 5.3 ≤ pIC50 < 6.0 (1 µM<IC50 ≤ 5 µM); compounds having an activity designated as "C" provided an 5.0 ≤ pIC50 < 5.3 (5 µM < IC50 ≤ 10 µM); compounds having an activity designated as "D" provided an 5.0 < pIC50 ≤ 4.7 (10 µM < IC50 ≤ 20 µM); and compounds having an activity designated as "E" provided an pIC50 < 4.7 (IC50 >20 µM).
# T1 sequence (O43683 whole entry): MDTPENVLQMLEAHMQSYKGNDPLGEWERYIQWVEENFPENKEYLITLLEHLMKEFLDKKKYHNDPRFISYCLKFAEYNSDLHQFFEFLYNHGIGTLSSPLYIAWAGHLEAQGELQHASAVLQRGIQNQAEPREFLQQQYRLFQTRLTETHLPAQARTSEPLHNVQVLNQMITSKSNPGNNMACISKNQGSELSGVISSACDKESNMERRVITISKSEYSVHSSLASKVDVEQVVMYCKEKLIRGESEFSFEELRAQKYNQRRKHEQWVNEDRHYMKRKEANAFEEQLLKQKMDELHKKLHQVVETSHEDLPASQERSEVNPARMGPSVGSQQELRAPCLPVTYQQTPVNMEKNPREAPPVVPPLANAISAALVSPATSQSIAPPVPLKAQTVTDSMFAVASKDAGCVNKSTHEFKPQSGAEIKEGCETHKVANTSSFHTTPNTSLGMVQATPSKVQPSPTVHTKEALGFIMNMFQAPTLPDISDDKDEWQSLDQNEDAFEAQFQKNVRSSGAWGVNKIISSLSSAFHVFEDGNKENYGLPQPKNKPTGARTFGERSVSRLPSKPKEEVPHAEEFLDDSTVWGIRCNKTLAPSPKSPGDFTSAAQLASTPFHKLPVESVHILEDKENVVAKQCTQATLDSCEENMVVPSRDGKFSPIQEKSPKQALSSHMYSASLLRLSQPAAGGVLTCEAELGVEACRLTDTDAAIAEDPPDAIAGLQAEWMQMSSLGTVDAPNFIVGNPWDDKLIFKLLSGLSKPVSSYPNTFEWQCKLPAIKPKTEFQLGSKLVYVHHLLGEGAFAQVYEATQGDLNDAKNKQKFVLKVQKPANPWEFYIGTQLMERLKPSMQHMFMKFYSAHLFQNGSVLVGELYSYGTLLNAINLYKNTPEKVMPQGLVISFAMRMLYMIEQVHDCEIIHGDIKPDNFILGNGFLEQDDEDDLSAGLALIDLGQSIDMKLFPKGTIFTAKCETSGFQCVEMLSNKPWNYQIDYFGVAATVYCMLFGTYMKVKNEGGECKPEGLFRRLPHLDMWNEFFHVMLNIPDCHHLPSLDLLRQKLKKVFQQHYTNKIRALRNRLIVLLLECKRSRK
# T1 sequence (O43684 whole entry partner): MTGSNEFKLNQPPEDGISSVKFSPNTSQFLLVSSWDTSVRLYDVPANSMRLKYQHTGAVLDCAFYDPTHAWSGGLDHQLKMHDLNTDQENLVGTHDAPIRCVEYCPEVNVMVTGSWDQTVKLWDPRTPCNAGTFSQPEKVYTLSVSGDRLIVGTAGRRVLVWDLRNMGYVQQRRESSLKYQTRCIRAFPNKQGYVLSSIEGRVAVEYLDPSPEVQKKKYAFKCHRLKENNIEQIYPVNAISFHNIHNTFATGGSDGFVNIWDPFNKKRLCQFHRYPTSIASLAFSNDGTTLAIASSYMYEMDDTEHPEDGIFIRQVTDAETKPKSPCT
SMILES,IC50 [1] [nM],IC50 [2] [nM]
"COc1cnc(-c2cccc(C#N)c2)nc1Nc1c[nH]nc1-c1nc2cc(CN3CCOCC3)ccc2[nH]1 [Compound 54, 3-(5-Methoxy-4-((3-(5-(morpholinomethyl)-1H-benzo[d]imidazol-2-yl)-1H-pyrazol-4-yl)amino)pyrimidin-2-yl)benzonitrile]",≤ 100,10000 to 20000
"C#Cc1ccc(F)c(-c2ncc(OC)c(Nc3c[nH]nc3-c3nc4cc(CN5CCOCC5)ccc4[nH]3)n2)c1 [Compound 58, 2-(5-Ethynyl-2-fluorophenyl)-5-methoxy-N-(3-(5-(morpholinomethyl)-1H-benzo[d]imidazol-2-yl)-1H-pyrazol-4-yl)pyrimidin-4-amine]",≤ 100,≤ 1000
"N#Cc1cccc(-c2nccc(Nc3c[nH]nc3-c3nc4cc(CN5CCOCC5)ccc4[nH]3)n2)c1 [Compound 44, 3-(4-((3-(5-(Morpholinomethyl)-1H-benzo[d]imidazol-2-yl)-1H-pyrazol-4-yl)amino)pyrimidin-2-yl)benzonitrile]",501 to 1000,1000 to 5010
"COc1cnc(-c2cc(Cl)ccc2F)nc1Nc1c[nH]nc1-c1nc2cc(CN3CCOCC3)ccc2[nH]1 [Compound 57, 2-(5-Chloro-2-fluorophenyl)-5-methoxy-N-(3-(5-(morpholinomethyl)-1H-benzo[d]imidazol-2-yl)-1H-pyrazol-4-yl)pyrimidin-4-amine]",≤ 100,≤ 1000
"FC(F)(F)c1cccc(-c2nccc(Nc3c[nH]nc3-c3nc4cc(CN5CCOCC5)ccc4[nH]3)n2)c1 [Compound 43, N-(3-(5-(Morpholinomethyl)-1H-benzo[d]imidazol-2-yl)-1H-pyrazol-4-yl)-2-(3-(trifluoromethyl)phenyl)pyrimidin-4-amine]",501 to 1000,1000 to 5010
"C#Cc1cccc(-c2ncc(OC)c(Nc3c[nH]nc3-c3nc4cc(CN5CCOCC5)ccc4[nH]3)n2)c1F [Compound 56, 2-(3-Ethynyl-2-fluorophenyl)-5-methoxy-N-(3-(5-(morpholinomethyl)-1H-benzo[d]imidazol-2-yl)-1H-pyrazol-4-yl)pyrimidin-4-amine]",≤ 100,≤ 1000
"c1ccc(Oc2nccc(Nc3c[nH]nc3-c3nc4cc(CN5CCOCC5)ccc4[nH]3)n2)cc1 [Compound 17, N-(3-(5-(morpholinomethyl)-1H-benzo[d]imidazol-2-yl)-1H-pyrazol-4-yl)-2-phenoxypyrimidin-4-amine]",100 to 501,5010 to 10000
